According to patent US20130040882A1, “USE OF FIBROBLAST GROWTH FACTOR FRAGMENTS” (NOVARTIS AG, priority 2003, published 2013):

Test system: uterine gene expression
Test: Gene expression profiling (HGU133A) in the uterus of ovariectomized monkeys treated with estradiol, tamoxifen or raloxifene
Assay type: in vivo, cynomolgus monkeys (Macaca fascicularis)
Conditions: uterus, OVX monkeys

SMILES: CC/C(=C(\c1ccccc1)c1ccc(OCCN(C)C)cc1)c1ccccc1 [tamoxifen]
- Fold change relative to SHAM control: Growth associated protein 43: 0.8 fold
- Fold change relative to SHAM control: H2A histone family, member Y: 1.4 fold
- Fold change relative to SHAM control: Heparan sulfate proteoglycan 2 (perlecan): 1.0 fold
- Fold change relative to SHAM control: Histone H2A.F/Z variant: 1.4 fold
- Fold change relative to SHAM control: Insulin-like growth factor binding protein 2, 36 kda: 1.7 fold
- Fold change relative to SHAM control: Insulin-like growth factor binding protein 5: 1.0 fold
- Fold change relative to SHAM control: Integrin, beta 5: 0.9 fold
- Fold change relative to SHAM control: Intercrine-alpha, mrna sequence: 0.9 fold
- Fold change relative to SHAM control: LDL receptor adaptor protein: 1.6 fold
- Fold change relative to SHAM control: LIM and senescent cell antigen-like domains 1: 1.1 fold
- Fold change relative to SHAM control: Laminin, beta 1: 1.0 fold
- Fold change relative to SHAM control: Latent transforming growth factor beta binding protein 1: 1.2 fold
- Fold change relative to SHAM control: Matrix metalloproteinase 19: 0.3 fold
- Fold change relative to SHAM control: Mitogen-activated protein kinase kinase kinase kinase 4: 1.0 fold
- Fold change relative to SHAM control: Nidogen (enactin): 1.4 fold
- Fold change relative to SHAM control: Osteoglycin (osteoinductive factor, mimecan): 0.8 fold
- Fold change relative to SHAM control: Peroxiredoxin 1: 1.4 fold
- Fold change relative to SHAM control: Phosphatase and tensin homolog (mutated in multiple advanced cancers 1): 1.0 fold
- Fold change relative to SHAM control: Phospholipid transfer protein: 0.9 fold
- Fold change relative to SHAM control: Pituitary tumour-transforming 1 interacting protein: 0.9 fold
- Fold change relative to SHAM control: Procollagen C-endopeptidase enhancer: 1.1 fold
- Fold change relative to SHAM control: Procollagen-proline, 2-oxoglutarate 4-dioxygenase (proline 4-hydroxylase), alpha polypeptide II: 1.0 fold
- Fold change relative to SHAM control: Progesterone receptor: 1.5 fold
- Fold change relative to SHAM control: Protein tyrosine kinase 9: 1.1 fold
- Fold change relative to SHAM control: SET domain, bifurcated 1: 1.4 fold
- Fold change relative to SHAM control: SPARC-like 1 (mast9, hevin): 0.8 fold
- Fold change relative to SHAM control: Secreted frizzled-related protein 1: 1.1 fold
- Fold change relative to SHAM control: Secreted frizzled-related protein 4: 1.4 fold
- Fold change relative to SHAM control: Secreted protein, acidic, cysteine-rich (osteonectin): 1.0 fold
- Fold change relative to SHAM control: Serine (or cysteine) proteinase inhibitor, clade H (heat shock protein 47), member 1, (collagen binding protein 1): 1.1 fold
- Fold change relative to SHAM control: Solute carrier family 22 (organic cation transporter), member 1-like: 1.5 fold
- Fold change relative to SHAM control: Solute carrier family 25 (mitochondrial carrier; adenine nucleotide translocator), member 5: 1.5 fold
- Fold change relative to SHAM control: Stem cell growth factor; lymphocyte secreted C-type lectin: 0.9 fold
- Fold change relative to SHAM control: Tenascin C (hexabrachion): 2.9 fold
- Fold change relative to SHAM control: Testis Enhanced Gene Transcript (Bax Inhibitor 1): 1.5 fold
- Fold change relative to SHAM control: Thioredoxin interacting protein: 0.9 fold
- Fold change relative to SHAM control: Transforming growth factor, beta-induced, 68 kda: 1.0 fold
- Fold change relative to SHAM control: Ubiquinol-cytochrome c reductase, Rieske iron-sulfur polypeptide 1: 1.1 fold
- Fold change relative to SHAM control: Wingless-type MMTV integration site family, member 2B: 1.1 fold
- Fold change relative to SHAM control: Wingless-type MMTV integration site family, member 16: 1.0 fold
- Fold change relative to OVX: Insulin receptor (Table 46): 0.7 fold
- Fold change relative to SHAM control: Insulin receptor (Table 46): 1.2 fold
- Fold change relative to OVX: Insulin receptor (Table 51): 0.7 fold
- Fold change relative to SHAM control: Insulin receptor (Table 51): 1.2 fold
- Fold change relative to OVX: Fibronectin 1 (entry with OVX average 39): 2.3 fold
- Fold change relative to OVX: Bone morphogenetic protein 1 (entry with OVX average 79): 1.9 fold
- Fold change relative to OVX: Bone morphogenetic protein 1 (entry with OVX average 93): 2.2 fold
- Fold change relative to OVX: Insulin-like growth factor 1 (somatomedin C) (entry with OVX average 102): 3.7 fold
- Fold change relative to OVX: Fibrillin 1 (Marfan syndrome) (entry with OVX average 124): 1.9 fold
- Fold change relative to OVX: Collagen, type I, alpha 2 (entry with OVX average 154): 6.1 fold
- Fold change relative to OVX: Insulin-like growth factor 1 (somatomedin C) (entry with OVX average 156): 4.6 fold
- Fold change relative to OVX: Solute carrier family 2 (facilitated glucose/fructose transporter), member 5 (entry with OVX average 171): 2.2 fold
- Fold change relative to OVX: Solute carrier family 2 (facilitated glucose/fructose transporter), member 5 (entry with OVX average 176): 2.1 fold
- Fold change relative to OVX: Collagen, type IV, alpha 1 (entry with OVX average 182): 3.2 fold
- Fold change relative to OVX: Cyclin-dependent kinase inhibitor 1C (p57, Kip2) (entry with OVX average 224): 0.7 fold
- Fold change relative to OVX: Insulin-like growth factor 1 (somatomedin C) (entry with OVX average 310): 4.8 fold
- Fold change relative to OVX: Fibronectin 1 (entry with OVX average 419): 2.0 fold
- Fold change relative to OVX: Cyclin-dependent kinase inhibitor 1C (p57, Kip2) (entry with OVX average 527): 0.5 fold
- Fold change relative to OVX: Fibronectin 1 (entry with OVX average 586): 1.9 fold
- Fold change relative to OVX: Fibronectin 1 (entry with OVX average 648): 1.9 fold
- Fold change relative to OVX: Collagen, type IV, alpha 1 (entry with OVX average 690): 2.7 fold
- Fold change relative to OVX: Fibronectin 1 (entry with OVX average 757): 1.6 fold
- Fold change relative to OVX: Cyclin-dependent kinase inhibitor 1C (p57, Kip2) (entry with OVX average 762): 0.5 fold
- Fold change relative to OVX: ATP synthase, H+ transporting, mitochondrial F0 complex, subunit c (subunit 9) isoform 3 (entry with OVX average 811): 2.0 fold
- Fold change relative to OVX: Fibrillin 1 (Marfan syndrome) (entry with OVX average 874): 2.1 fold
- Fold change relative to OVX: ATP synthase, H+ transporting, mitochondrial F0 complex, subunit c (subunit 9) isoform 3 (entry with OVX average 1007): 1.9 fold
- Fold change relative to OVX: Collagen, type III, alpha 1 (Ehlers-Danlos syndrome type IV, autosomal dominant) (entry with OVX average 1084): 3.4 fold
- Fold change relative to OVX: Collagen, type I, alpha 2 (entry with OVX average 2757): 3.7 fold
- Fold change relative to OVX: Collagen, type III, alpha 1 (Ehlers-Danlos syndrome type IV, autosomal dominant) (entry with OVX average 3445): 2.9 fold
- Fold change relative to OVX: H3 histone, family 3A (entry with OVX average 9495): 1.4 fold
- Fold change relative to OVX: H3 histone, family 3A (entry with OVX average 9692): 1.4 fold
- Fold change relative to SHAM control: Fibronectin 1 (entry with SHAM average 100): 0.9 fold
- Fold change relative to SHAM control: Bone morphogenetic protein 1 (entry with SHAM average 143): 1.0 fold
- Fold change relative to SHAM control: Cyclin-dependent kinase inhibitor 1C (p57, Kip2) (entry with SHAM average 201): 0.8 fold
- Fold change relative to SHAM control: Bone morphogenetic protein 1 (entry with SHAM average 205): 1.0 fold
- Fold change relative to SHAM control: Insulin-like growth factor 1 (somatomedin C) (entry with SHAM average 226): 1.7 fold
- Fold change relative to SHAM control: Fibrillin 1 (Marfan syndrome) (entry with SHAM average 236): 1.0 fold
- Fold change relative to SHAM control: Solute carrier family 2 (facilitated glucose/fructose transporter), member 5 (entry with SHAM average 291): 1.3 fold
- Fold change relative to SHAM control: Solute carrier family 2 (facilitated glucose/fructose transporter), member 5 (entry with SHAM average 317): 1.2 fold
- Fold change relative to SHAM control: Insulin-like growth factor 1 (somatomedin C) (entry with SHAM average 417): 1.7 fold
- Fold change relative to SHAM control: Collagen, type IV, alpha 1 (entry with SHAM average 436): 1.3 fold
- Fold change relative to SHAM control: Cyclin-dependent kinase inhibitor 1C (p57, Kip2) (entry with SHAM average 459): 0.6 fold
- Fold change relative to SHAM control: Collagen, type I, alpha 2 (entry with SHAM average 493): 1.9 fold
- Fold change relative to SHAM control: Insulin-like growth factor 1 (somatomedin C) (entry with SHAM average 581): 2.6 fold
- Fold change relative to SHAM control: Cyclin-dependent kinase inhibitor 1C (p57, Kip2) (entry with SHAM average 660): 0.6 fold
- Fold change relative to SHAM control: Fibronectin 1 (entry with SHAM average 920): 0.9 fold
- Fold change relative to SHAM control: ATP synthase, H+ transporting, mitochondrial F0 complex, subunit c (subunit 9) isoform 3 (entry with SHAM average 1045): 1.6 fold
- Fold change relative to SHAM control: Fibronectin 1 (entry with SHAM average 1089): 1.0 fold
- Fold change relative to SHAM control: Collagen, type IV, alpha 1 (entry with SHAM average 1143): 1.6 fold
- Fold change relative to SHAM control: Fibronectin 1 (entry with SHAM average 1288): 0.9 fold
- Fold change relative to SHAM control: Fibronectin 1 (entry with SHAM average 1301): 0.9 fold
- Fold change relative to SHAM control: ATP synthase, H+ transporting, mitochondrial F0 complex, subunit c (subunit 9) isoform 3 (entry with SHAM average 1355): 1.4 fold
- Fold change relative to SHAM control: Fibrillin 1 (Marfan syndrome) (entry with SHAM average 1388): 1.3 fold
- Fold change relative to SHAM control: Collagen, type III, alpha 1 (Ehlers-Danlos syndrome type IV, autosomal dominant) (entry with SHAM average 2992): 1.2 fold
- Fold change relative to SHAM control: Collagen, type III, alpha 1 (Ehlers-Danlos syndrome type IV, autosomal dominant) (entry with SHAM average 7354): 1.4 fold
- Fold change relative to SHAM control: Collagen, type I, alpha 2 (entry with SHAM average 7758): 1.3 fold
- Fold change relative to SHAM control: H3 histone, family 3A (entry with SHAM average 9408): 1.4 fold
- Fold change relative to SHAM control: H3 histone, family 3A (entry with SHAM average 10239): 1.3 fold
